The source of these data is ChEMBL document CHEMBL5291721, “A preclinical secondary pharmacology resource illuminates target-adverse drug reaction associations of marketed drugs” (Nat Commun, 2023).

Test [1] has as its target T1, Type-1 angiotensin II receptor (Homo sapiens, UniProt P30556).
T1 sequence (P30556 whole entry): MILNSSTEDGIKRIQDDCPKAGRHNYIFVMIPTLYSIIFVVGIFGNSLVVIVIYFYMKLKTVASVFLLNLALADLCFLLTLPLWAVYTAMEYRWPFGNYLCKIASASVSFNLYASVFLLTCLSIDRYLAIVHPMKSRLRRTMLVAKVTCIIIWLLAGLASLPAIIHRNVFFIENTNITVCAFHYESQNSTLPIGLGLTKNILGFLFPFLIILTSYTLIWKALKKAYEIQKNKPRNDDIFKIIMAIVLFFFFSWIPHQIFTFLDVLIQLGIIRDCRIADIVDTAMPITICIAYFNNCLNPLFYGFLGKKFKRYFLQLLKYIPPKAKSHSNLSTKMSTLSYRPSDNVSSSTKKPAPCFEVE

In test [2] the target is T2, Cholecystokinin receptor type A (Homo sapiens, UniProt P32238).
T2 sequence (P32238 whole entry): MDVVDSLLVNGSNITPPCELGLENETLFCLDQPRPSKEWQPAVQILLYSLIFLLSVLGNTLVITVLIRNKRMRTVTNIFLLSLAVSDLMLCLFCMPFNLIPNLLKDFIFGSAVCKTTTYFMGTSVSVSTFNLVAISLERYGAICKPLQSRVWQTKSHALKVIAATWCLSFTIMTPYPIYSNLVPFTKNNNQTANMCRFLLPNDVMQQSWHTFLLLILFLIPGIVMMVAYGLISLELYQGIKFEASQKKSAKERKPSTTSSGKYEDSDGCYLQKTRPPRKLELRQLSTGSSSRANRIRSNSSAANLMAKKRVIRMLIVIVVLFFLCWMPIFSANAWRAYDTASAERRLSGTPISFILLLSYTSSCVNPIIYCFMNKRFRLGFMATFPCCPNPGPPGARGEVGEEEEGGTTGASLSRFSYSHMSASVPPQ

A further test addresses T3, Estrogen receptor (Homo sapiens, UniProt P03372).
T3 sequence (P03372 whole entry): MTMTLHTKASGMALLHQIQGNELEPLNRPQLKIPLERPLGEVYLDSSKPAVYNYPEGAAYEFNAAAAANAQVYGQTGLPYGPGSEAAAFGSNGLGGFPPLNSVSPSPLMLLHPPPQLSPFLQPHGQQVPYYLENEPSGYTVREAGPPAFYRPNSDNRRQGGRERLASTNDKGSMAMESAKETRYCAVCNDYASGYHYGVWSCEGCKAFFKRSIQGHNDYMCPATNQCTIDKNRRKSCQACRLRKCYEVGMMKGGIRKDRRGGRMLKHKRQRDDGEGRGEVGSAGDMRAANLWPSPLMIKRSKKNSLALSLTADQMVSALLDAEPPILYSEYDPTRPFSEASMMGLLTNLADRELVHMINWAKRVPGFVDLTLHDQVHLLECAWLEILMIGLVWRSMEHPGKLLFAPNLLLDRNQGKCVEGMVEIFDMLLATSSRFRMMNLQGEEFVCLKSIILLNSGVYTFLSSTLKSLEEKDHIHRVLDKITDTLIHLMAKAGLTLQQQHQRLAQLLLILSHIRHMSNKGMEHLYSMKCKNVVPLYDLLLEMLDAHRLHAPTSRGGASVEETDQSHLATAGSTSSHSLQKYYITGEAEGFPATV

Test [3] addresses T4, 5-hydroxytryptamine receptor 3A (Homo sapiens, UniProt P46098).
T4 sequence (P46098 whole entry): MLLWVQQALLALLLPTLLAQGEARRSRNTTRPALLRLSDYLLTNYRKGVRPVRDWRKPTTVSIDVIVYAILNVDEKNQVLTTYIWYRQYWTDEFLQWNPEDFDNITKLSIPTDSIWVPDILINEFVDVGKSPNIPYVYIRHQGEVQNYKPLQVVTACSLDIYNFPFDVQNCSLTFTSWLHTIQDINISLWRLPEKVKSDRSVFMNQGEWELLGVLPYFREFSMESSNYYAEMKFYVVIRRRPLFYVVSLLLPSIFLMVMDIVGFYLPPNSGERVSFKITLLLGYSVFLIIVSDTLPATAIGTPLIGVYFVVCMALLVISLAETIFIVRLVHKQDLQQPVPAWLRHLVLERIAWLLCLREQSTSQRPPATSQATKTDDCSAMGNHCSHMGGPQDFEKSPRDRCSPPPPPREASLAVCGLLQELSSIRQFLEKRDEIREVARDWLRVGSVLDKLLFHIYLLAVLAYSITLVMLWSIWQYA
It is filed as functional.

Test [4] deals with T5, Alpha-2C adrenergic receptor (Homo sapiens, UniProt P18825).
T5 sequence (P18825 whole entry): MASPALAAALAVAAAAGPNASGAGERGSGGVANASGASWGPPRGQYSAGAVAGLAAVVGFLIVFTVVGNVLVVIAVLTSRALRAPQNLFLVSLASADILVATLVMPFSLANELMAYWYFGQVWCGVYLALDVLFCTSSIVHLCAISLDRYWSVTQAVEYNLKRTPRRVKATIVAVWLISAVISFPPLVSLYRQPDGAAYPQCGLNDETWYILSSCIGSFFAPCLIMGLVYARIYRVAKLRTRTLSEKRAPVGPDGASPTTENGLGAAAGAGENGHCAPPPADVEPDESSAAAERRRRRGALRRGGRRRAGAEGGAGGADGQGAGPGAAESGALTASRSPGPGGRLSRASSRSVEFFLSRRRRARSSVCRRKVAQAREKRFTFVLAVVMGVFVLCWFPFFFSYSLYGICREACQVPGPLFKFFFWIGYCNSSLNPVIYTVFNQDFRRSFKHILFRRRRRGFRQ
In kind it is functional.

Test [5] concerns the target Voltage-dependent L-type calcium channel subunit alpha-1C (Rattus norvegicus, UniProt P22002). It is filed as functional.
Test [6] addresses T6, 5-hydroxytryptamine receptor 1A (Homo sapiens, UniProt P08908).
T6 sequence (P08908 whole entry): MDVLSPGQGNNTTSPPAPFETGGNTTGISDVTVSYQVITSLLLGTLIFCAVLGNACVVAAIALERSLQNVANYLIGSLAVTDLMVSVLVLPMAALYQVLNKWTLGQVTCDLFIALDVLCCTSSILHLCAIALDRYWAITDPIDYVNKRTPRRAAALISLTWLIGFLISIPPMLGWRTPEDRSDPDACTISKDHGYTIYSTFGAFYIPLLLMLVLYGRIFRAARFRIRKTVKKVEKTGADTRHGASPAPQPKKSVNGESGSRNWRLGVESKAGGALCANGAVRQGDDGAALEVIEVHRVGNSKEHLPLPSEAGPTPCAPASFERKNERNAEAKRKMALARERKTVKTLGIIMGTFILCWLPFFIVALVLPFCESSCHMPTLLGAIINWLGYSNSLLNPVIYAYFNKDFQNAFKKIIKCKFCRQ
It is filed as functional, cell-based.

A further test concerns the target D(1A) dopamine receptor (Homo sapiens, UniProt P21728). In kind it is functional, cell-based.
A further test has as its target Mu-type opioid receptor (Homo sapiens, UniProt P35372).
Note: assay procedure not described here.

Sequence of Mu-type opioid receptor (P35372 whole entry): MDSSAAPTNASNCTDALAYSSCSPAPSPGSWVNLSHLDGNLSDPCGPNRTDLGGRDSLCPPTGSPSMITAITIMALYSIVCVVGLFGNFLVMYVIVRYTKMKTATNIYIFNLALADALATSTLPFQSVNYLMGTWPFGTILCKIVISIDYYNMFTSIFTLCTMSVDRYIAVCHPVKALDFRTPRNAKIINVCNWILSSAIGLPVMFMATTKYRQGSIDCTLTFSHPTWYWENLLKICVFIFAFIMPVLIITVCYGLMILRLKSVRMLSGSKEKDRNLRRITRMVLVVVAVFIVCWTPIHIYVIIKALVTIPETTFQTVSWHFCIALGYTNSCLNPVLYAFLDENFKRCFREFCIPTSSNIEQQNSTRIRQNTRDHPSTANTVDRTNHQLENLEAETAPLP
Sequence of Voltage-dependent L-type calcium channel subunit alpha-1C (P22002 whole entry): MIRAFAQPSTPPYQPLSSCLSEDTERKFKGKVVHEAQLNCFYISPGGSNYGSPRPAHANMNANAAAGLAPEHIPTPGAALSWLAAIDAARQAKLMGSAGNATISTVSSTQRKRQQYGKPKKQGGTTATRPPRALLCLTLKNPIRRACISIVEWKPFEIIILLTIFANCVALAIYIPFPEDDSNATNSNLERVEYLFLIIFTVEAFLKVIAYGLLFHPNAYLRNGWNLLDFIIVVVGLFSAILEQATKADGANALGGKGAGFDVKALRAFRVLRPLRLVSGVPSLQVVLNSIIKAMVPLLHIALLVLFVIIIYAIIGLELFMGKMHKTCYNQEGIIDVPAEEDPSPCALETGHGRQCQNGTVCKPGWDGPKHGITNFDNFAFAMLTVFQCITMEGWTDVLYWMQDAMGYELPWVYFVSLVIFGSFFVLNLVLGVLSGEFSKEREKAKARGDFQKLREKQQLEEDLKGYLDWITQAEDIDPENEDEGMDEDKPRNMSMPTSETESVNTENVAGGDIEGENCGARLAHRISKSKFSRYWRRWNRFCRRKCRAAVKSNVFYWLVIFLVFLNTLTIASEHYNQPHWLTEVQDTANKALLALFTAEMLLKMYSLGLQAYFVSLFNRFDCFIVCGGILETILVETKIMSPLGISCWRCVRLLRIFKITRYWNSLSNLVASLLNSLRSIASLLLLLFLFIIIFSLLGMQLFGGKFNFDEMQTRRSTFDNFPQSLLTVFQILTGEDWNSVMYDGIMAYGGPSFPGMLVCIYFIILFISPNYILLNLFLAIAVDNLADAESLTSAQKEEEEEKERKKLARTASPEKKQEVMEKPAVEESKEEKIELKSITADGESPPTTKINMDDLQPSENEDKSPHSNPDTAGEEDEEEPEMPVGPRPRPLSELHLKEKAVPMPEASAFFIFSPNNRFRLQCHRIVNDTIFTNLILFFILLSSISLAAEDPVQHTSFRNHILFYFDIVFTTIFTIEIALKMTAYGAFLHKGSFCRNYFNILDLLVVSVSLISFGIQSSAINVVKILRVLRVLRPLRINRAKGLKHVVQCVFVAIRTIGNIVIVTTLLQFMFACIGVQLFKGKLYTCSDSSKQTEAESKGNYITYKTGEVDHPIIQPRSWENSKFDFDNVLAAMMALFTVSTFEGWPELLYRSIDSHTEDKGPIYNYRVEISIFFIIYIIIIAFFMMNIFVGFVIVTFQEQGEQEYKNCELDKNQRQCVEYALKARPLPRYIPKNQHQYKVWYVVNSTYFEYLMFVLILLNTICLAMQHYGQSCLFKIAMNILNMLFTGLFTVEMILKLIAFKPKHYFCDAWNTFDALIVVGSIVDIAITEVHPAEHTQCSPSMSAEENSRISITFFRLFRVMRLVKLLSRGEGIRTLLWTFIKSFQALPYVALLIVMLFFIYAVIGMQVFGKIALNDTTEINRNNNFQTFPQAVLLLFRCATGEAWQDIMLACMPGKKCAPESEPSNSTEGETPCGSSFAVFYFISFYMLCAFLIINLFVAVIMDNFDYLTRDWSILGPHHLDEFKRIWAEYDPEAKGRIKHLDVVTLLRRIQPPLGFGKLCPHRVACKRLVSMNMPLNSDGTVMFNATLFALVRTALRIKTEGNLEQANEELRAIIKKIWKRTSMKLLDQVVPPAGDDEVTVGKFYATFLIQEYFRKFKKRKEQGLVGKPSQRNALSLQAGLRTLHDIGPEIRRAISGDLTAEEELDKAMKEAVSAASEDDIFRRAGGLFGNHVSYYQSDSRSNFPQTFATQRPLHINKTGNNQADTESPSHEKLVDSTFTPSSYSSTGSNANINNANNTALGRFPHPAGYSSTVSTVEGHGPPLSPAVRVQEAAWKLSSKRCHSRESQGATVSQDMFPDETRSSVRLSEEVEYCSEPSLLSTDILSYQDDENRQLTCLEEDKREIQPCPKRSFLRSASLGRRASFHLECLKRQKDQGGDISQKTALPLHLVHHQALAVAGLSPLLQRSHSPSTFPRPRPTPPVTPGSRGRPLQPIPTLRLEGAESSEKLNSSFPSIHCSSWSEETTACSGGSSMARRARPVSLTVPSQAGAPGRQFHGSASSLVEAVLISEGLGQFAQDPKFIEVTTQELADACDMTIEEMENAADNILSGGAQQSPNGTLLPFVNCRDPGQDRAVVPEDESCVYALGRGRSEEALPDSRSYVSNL
Sequence of D(1A) dopamine receptor (P21728 whole entry): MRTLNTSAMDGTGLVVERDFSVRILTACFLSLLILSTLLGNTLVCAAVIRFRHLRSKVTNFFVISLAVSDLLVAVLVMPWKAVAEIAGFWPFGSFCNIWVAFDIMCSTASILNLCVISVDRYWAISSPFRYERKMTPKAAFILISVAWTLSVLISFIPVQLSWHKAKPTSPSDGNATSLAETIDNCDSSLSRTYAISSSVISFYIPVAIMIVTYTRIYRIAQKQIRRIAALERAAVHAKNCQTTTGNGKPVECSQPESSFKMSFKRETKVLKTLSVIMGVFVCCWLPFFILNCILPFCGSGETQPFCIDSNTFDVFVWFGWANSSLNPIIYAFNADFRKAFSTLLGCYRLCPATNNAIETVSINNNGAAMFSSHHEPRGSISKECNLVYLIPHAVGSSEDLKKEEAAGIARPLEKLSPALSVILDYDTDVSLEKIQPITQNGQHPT

By AC50 is commonly meant the concentration giving half of the maximal activity seen. For the compound `CCOC(=O)C1=C(C)NC(C)=C(C(=O)OC)C1c1cccc(Cl)c1Cl` (centres undefined) [FELODIPINE], the AC50 in [1] is 55.3 µM; in [2], more than 30 µM; on Estrogen receptor, more than 30 µM; in test [3] it was more than 10 µM; in test [4], more than 10 µM; in [5], 0.0204 µM. In addition, the AC50 (in test [6]; at D(1A) dopamine receptor; on Mu-type opioid receptor) was more than 10 µM each time.
`O=C(C[S+]([O-])Cc1ccco1)NC/C=C\COc1cc(CN2CCCCC2)ccn1` (centres undefined) [LAFUTIDINE]: the AC50 was more than 10 µM in test [1]; more than 10 µM in test [2]; more than 10 µM at Estrogen receptor; more than 30 µM in [3]; 2.6 µM in [4]; more than 10 µM in test [5]. Further, the AC50 in test [6] is more than 30 µM; at D(1A) dopamine receptor, more than 10 µM; on Mu-type opioid receptor it was more than 30 µM.
As to `CCC1(CC)C(=O)NC(=O)N(C)C1=O` [METHARBITAL], the AC50 in test [1] is more than 10 µM; in [2], more than 10 µM; on Estrogen receptor, more than 10 µM; in test [3], more than 30 µM; in test [4] it was more than 10 µM; in [5] it was more than 10 µM. For the same compound, the AC50 in test [6] was more than 10 µM; at D(1A) dopamine receptor it was more than 10 µM; at Mu-type opioid receptor, more than 30 µM.
Take `CC1NCCOC1c1ccccc1` (centres undefined) [PHENMETRAZINE]: the AC50 in test [1] was more than 30 µM; in test [2] it was more than 30 µM; on Estrogen receptor it was more than 30 µM; in test [3], more than 30 µM; in test [4], more than 10 µM; in test [5] it was more than 10 µM. In addition, the AC50 is more than 10 µM in test [6], more than 10 µM at D(1A) dopamine receptor and more than 30 µM at Mu-type opioid receptor.
With `CC(C)(N)Cc1ccccc1` [PHENTERMINE], the AC50 is more than 30 µM in test [1]; more than 30 µM in test [2]; more than 30 µM on Estrogen receptor; more than 30 µM in [3]; more than 10 µM in [4]; more than 10 µM in [5]. For the same compound, the AC50 in [6] is more than 10 µM; at D(1A) dopamine receptor it was more than 10 µM; on Mu-type opioid receptor, more than 30 µM.
Regarding `CCOC(=O)O[C@]1(C(=O)COC(=O)CC)CC[C@H]2[C@@H]3CCC4=CC(=O)C=C[C@]4(C)[C@H]3[C@@H](O)C[C@@]21C` [PREDNICARBATE], the AC50 in test [1] is more than 10 µM; in test [2] it was more than 10 µM; on Estrogen receptor, more than 30 µM; in test [3] it was more than 30 µM; in test [4], more than 10 µM; in test [5] it was more than 10 µM. Besides, the AC50 in test [6] is more than 10 µM; at D(1A) dopamine receptor, more than 10 µM; on Mu-type opioid receptor, more than 30 µM.
Turning to `CCC(=O)[C@@]1(C)[C@H](C)C[C@H]2[C@@H]3CCC4=CC(=O)C=C[C@]4(C)[C@H]3[C@@H](O)C[C@@]21C` [RIMEXOLONE], the AC50 in test [1] is more than 10 µM; in test [2], more than 10 µM; on Estrogen receptor, more than 30 µM; in test [3] it was more than 30 µM; in [4], more than 10 µM; in test [5], more than 10 µM. Further, the concentration at half-maximal activity (AC50) is more than 10 µM in test [6], more than 10 µM at D(1A) dopamine receptor and more than 30 µM on Mu-type opioid receptor.
Consider `CC(C(=O)O)c1ccc(C(=O)c2ccccc2)s1` (centres undefined) [TIAPROFENIC ACID], for which the AC50 in [1] is more than 10 µM; in [2] it was more than 10 µM; on Estrogen receptor, more than 10 µM; in test [3], more than 30 µM; in [4], 15 µM; in test [5] it was more than 10 µM. The AC50 in test [6] is more than 10 µM; at D(1A) dopamine receptor, more than 10 µM; at Mu-type opioid receptor it was more than 30 µM.
Take `Cc1cccc(Nc2ccncc2S(=O)(=O)NC(=O)NC(C)C)c1` [TORSEMIDE]: the AC50 in [1] was more than 10 µM; in [2], more than 30 µM; on Estrogen receptor it was more than 10 µM; in [3], more than 30 µM; in test [4], more than 10 µM; in test [5], more than 10 µM. Further, the AC50 in test [6] is more than 10 µM; on D(1A) dopamine receptor, more than 10 µM; at Mu-type opioid receptor, more than 30 µM.
As to `CCN(C(C)=O)c1cccc(-c2ccnc3c(C#N)cnn23)c1` [ZALEPLON], the AC50 in test [1] is more than 30 µM; in test [2], more than 30 µM; on Estrogen receptor it was more than 30 µM; in [3], more than 30 µM; in [4], more than 10 µM; in [5], more than 10 µM. In addition, the concentration at half-maximal activity (AC50) is more than 10 µM in [6], more than 10 µM at D(1A) dopamine receptor and more than 30 µM at Mu-type opioid receptor.
TEPRENONE: the AC50 in test [1] was 8.72 µM; in test [2] it was more than 30 µM; on Estrogen receptor, more than 30 µM; in [3], more than 30 µM; in test [4], more than 10 µM; in test [5], more than 10 µM. For the same compound, the AC50 in [6] was more than 30 µM; on D(1A) dopamine receptor it was more than 10 µM; at Mu-type opioid receptor, more than 30 µM.
